We go through two molecules from patent publication US6528545B1, “Preparations comprising a fluorocarbon or highly fluorinated compound and a lipophilic/fluorophilic organic compound, and their uses” (priority 1991, dated 2003).

Series [1] can be described thus: Facilitation of emulsification of perfluorooctyl bromide: fine particles versus number of microfluidizer passes. The note with it: perfluorooctyl bromide/lecithin emulsion, fine particles d<0,12 μm (FIG. 9). In kind it is physicochemical. The method, then:
The compounds used in the methods of the invention facilitate the formation of the emulsion and lead to emulsions with fine particle size after a reduced number of passes or a reduced amount of energy. When the compound F8H8E of the invention is added to perfluorooctyl bromide/lecithin emulsion, 30% of fine particles are obtained after 10 passes. By comparison, the reference emulsion without the compounds of the invention requires 20 passes to obtain the same percentage of fine particles (FIG. 9).
The protocol described in Example 1 was used. The average particle size was measured during microfluidization after 1, 2, 3, 4, 5, 7 and 10 passes. The percentage of fine particles (d<0,12 μm) and of coarse particle (d>0,6 μm) was evaluated.
The same protocol as for reference emulsion E was used but for the addition of (F8H8E) as described in example 2.

The nature of series [2]: Particle size and ageing stability of perfluorooctyl bromide/lecithin emulsions (photosedimentation). In kind it is physicochemical. The note with it: 90% w/v emulsion of perfluorooctyl bromide. As to the method:
32 g of egg-yolk lecithin and a mixture of salts whose composition is shown in detail in Table I was dispersed with Ultra Turrax under nitrogen (24000 t/min, 10 min) in 393 mL of injectable water. Perfluorooctyl bromide (PFOB, Perflubron®) (375 mL) was added slowly to this dispersion under nitrogen. The mixture was dispersed for 10 mn at 30-40° C. The coarse emulsion obtained was passed under nitrogen through a microfluidizer (M110F). After 10 passes under a pressure of 12000 psi in the chambers cooled to 35° C., the emulsion was recovered, filled in flasks then sterilized at 121° C. for 15 mn. The ageing was monitored at 5,25 and 40° C. (Table II and FIG. 1) and the average size of the particles measured by photosedimentation.
32 g of egg-yolk lecithin and a mixture of salts of the above composition (Table I) was dispersed under nitrogen using an Ultra Turrax T50 (24000 t/min, 10 min) in 379 mL of injectable water at 30-40° C. F6H8E (14.3 mL) was slowly added to this dispersion, which was stirred for 2 min. Perfluorooctyl bromide (375 mL) was then slowly added. The whole was emulsified for 10 min at 24000 t/min at 30-40° C. The coarse emulsion obtained was run under nitrogen through the microfluidizer and after 10 passes (12000 psi, 35° C.) the emulsion was filled in vials, sterilized and stored at 5,25 and 40° C. (Table II and FIG. 1). […]
The same protocol described in the example of Reference A was used but for 16 g of egg-yolk lecithin. The aging was monitored at 40° C. (Table II and FIG. 4).
The protocol described in example 1 was used with 385 mL of water, 8.38 mL of F8H8E, 16 g of lecithin and 375 mL of perfluorooctyl bromide. After microfluidization, the emulsion was sterilized and stored at 40° C. (Table II and FIG. 4). EXAMPLE 5 […]
The same protocol described in example of reference A was used but for 8 g of egg-yolk lecithin. The aging was monitored at 40° C. (Table II and FIG. 6 ) and the average size of the particles was measured by photosedimentation.
The protocol described in example 1 was used with 382 mL of water, 4,19 mL of F8H8E, 8 g of lecithin and 375 mL of perfluorooctyl bromide. After microfluidization the emulsion was sterilized and stored at 40° C. (Table II and FIG. 6).

The conditions of series [3]: cited from earlier work.

Consider `CCCCCCCCC=CC(F)(F)C(F)(F)C(F)(F)C(F)(F)C(F)(F)C(F)(F)C(F)(F)C(F)(F)F` [Example F8H8E, C8F17CH═CHC8H17], for which the “number of passes to obtain 30% of fine particles” value in series [1] stood at 10 passes. Further, the particle size entry in series [2] (0.1% w/v EYP and an equimolar amount of F8H8E) is reported as “about 2.75 μm”; in series [2] (0.2% w/v of EYP and an equimolar amount of F8H8E) it was “about 1.5 μm”; in series [2] (1% w/v of EYP and 0.7% w/v of F8H8E (FIG. 6)) it was “about 0.38 μm”; in series [2] (2% w/v of EYP and 1.4% w/v of F8H8E (FIG. 4)), “about 0.23 μm”.

In the case of `FC(F)(F)C(F)(F)C(F)(F)N(C(F)(F)C(F)(F)C(F)(F)F)C(F)(F)C(F)(F)C(F)(F)F` [perfluorotripropylamine], the “half retention time in liver (comparison value)” value in series [3] is 65 days.
